Assay results: PMC4920673, “Nitroimidazole carboxamides as antiparasitic agents targeting Giardia lamblia, Entamoeba histolytica and Trichomonas vaginalis” (European Journal of Medicinal Chemistry, 2016)
Converted amounts (≈) assume the structure as drawn. Where two headings read alike, the source gives them in different places.

How the values were obtained:
[1] = Resazurin cytotoxicity assay, HepG2; type: cell-based, Human; settings: human, 24 h, highest concentration 100 μM, n = 3, read-out: CC50 Hep G2
Method: (§1) Human HEK293 and HepG2 cells were seeded at 3000 and 5000 cells per well in 384-well plates, respectively. Cells were cultured in Dulbecco's modified Eagle's medium with 10% FBS for 24 h at 37 °C, 5% CO2. A dilution series of compounds was added, with the highest concentration of 100 μM. […] After 24 h incubation with the compounds, 5 μM resazurin was added into each well and incubated at 37 °C for 2 h. As a negative control, 1% Triton X-100 was added into the culture media to lyse all of the cells. The fluorescence intensity was read using Polarstar Omega with excitation/emission 560/590 nm. Data were analysed with GraphPad Prism 6 software (La Jolla, California USA) to calculate CC50 values.

[2] = tested on: C. difficile 630 (ATCC BAA-1382); assay: Broth microdilution MIC assay, C. difficile 630; type: cell-based, Clostridium difficile; settings: Clostridioides difficile, ATCCBAA1382; strain 630, MtzS; median of n = 4; read-out: MIC C. difficile 630
Method: Clostridium difficile strains (630, ATCC BAA-1382 and NAP1/027, ATCC BAA-1803) were maintained as previously described. The minimum inhibition concentration (MIC) was determined according to the CLSI Methods with modifications in broth and inoculum for C. difficile, [25], [26]. Briefly, compounds and control antibiotics were serially diluted two-fold in 96-well plates (Non-binding surface, Corning). […] C. difficile bacteria from BHIS(TA) agar plates were cultured anaerobically in BHIS at 37 °C overnight. […] An antibiotic standard, a positive growth control (no compound) and a sterility control (no bacteria) were included on each 96 well plate. Plates were covered and incubated at 37 °C for 24 h. MICs for each strain were determined as the lowest concentration without visible growth. […] Median MICs are reported with a range given when the median MIC was between two tested concentrations.

T. vaginalis F1623 = assay: ATP-bioluminescence growth/survival EC50 assay, T. vaginalis; type: cell-based, Trichomonas vaginalis; settings: Trichomonas vaginalis
Method: (§2) Compounds were screened for antiparasitic activity using an ATP-bioluminescence based assay for cell growth and survival, [24]. […] Viable cell numbers were determined in triplicate using the CellTiter-Glo Luminescent Cell Viability Assay.

E. histolytica HM1:IMSS = assay: ATP-bioluminescence growth/survival EC50 assay, E. histolytica; type: cell-based, Entamoeba histolytica; settings: Entamoeba histolytica
Method: as §2

G. lamblia 713M3 (MtzR) = assay: ATP-bioluminescence growth/survival EC50 assay, G. lamblia 713M3; type: cell-based, Giardia lamblia; settings: Giardia duodenalis
Method: as §2

G. lamblia WB (MtzS) = assay: ATP-bioluminescence growth/survival EC50 assay, G. lamblia WB; settings: for S.I (CC50/EC50): average cytotoxicity against HEK293 and HepG2 / G. lamblia WB activity
Method: as §2

[3] = tested on: C. difficile NAP1/027 (ATCC BAA-1803); assay: Broth microdilution MIC assay, C. difficile NAP1/027; type: cell-based, Clostridium difficile; settings: Clostridioides difficile, ATCCBAA1803; strain NAP1/027
Method: Clostridium difficile strains (630, ATCC BAA-1382 and NAP1/027, ATCC BAA-1803) were maintained as previously described. The minimum inhibition concentration (MIC) was determined according to the CLSI Methods with modifications in broth and inoculum for C. difficile, [25], [26]. Briefly, compounds and control antibiotics were serially diluted two-fold in 96-well plates (Non-binding surface, Corning). The plates were placed in a Coy anaerobic chamber (5% H2, 10% CO2, 85% N2) overnight to reduce the medium. C. difficile bacteria from BHIS(TA) agar plates were cultured anaerobically in BHIS at 37 °C overnight. […]. Compound concentration ranged from 64 to 0.03 μg/mL. An antibiotic standard, a positive growth control (no compound) and a sterility control (no bacteria) were included on each 96 well plate. Plates were covered and incubated at 37 °C for 24 h. MICs for each strain were determined as the lowest concentration without visible growth. Variance between replicates was typically within one 2-fold dilution. Median MICs are reported with a range given when the median MIC was between two tested concentrations.

[4] = Resazurin cytotoxicity assay, HEK293; type: cell-based, Human; settings: human, 24 h, highest concentration 100 μM, n = 3, read-out: CC50 HEK 293
Method: as §1

[5] = read-out: EC50 T. vaginalis F1623, MtzS, minimum n = 3
[6] = read-out: pEC50 ± SE T. vaginalis F1623, MtzS (converted)
[7] = read-out: EC50 E. histolytica HM1:IMSS
[8] = read-out: pEC50 ± SE E. histolytica HM1:IMSS (converted)
[9] = read-out: EC50 G. lamblia 713M3, MtzR strain 713M3, minimum n = 3
[10] = read-out: pEC50 ± SE G. lamblia 713M3, MtzR strain 713M3 (converted)
[11] = Giardia duodenalis, read-out: EC50 G. lamblia WB, MtzS strain WB, minimum n = 3
[12] = Giardia duodenalis, read-out: pEC50 ± SE G. lamblia WB, MtzS strain WB (converted)

| SMILES | CC50 at 24 h ([1]; HepG2 cells) [µM] | MIC [2] [µg/mL] | EC50 (T. vaginalis F1623; [5]) [nM] | EC50 (T. vaginalis F1623; [6]) [nM] | EC50 (E. histolytica HM1:IMSS; [7]) [µM] | EC50 (E. histolytica HM1:IMSS; [8]) [µM] | EC50 (G. lamblia 713M3 (MtzR); [9]) [µM] | EC50 (G. lamblia 713M3 (MtzR); [10]) [µM] | EC50 (G. lamblia WB (MtzS); [11]) [nM] | EC50 (G. lamblia WB (MtzS); [12]) [nM] | S.I (CC50/EC50) (G. lamblia WB (MtzS)) | MIC [3] [µg/mL] | CC50 at 24 h ([4]; HEK293 cells) [µM] | EC50 (G. lamblia WB (MtzS); read-out: EC50 G. lamblia WB, MtzS strain WB, minimum n = 3) [nM] | CC50 at 24 h [1] [µM] | CC50 at 24 h [4] [µM] |
| --- | --- | --- | --- | --- | --- | --- | --- | --- | --- | --- | --- | --- | --- | --- | --- | --- |
| CC(NC(=O)c1ncc([N+](=O)[O-])n1C)c1ccc(F)cc1 (stereo not shown) [Compound 8d, N-(1-(4-fluorophenyl)ethyl)-1-methyl-5-nitro-1H-imidazole-2-carboxamide] | > 100 | 64 (≈ 219 µM) | 3800 | 3800 | 10 | 10 | 1.9 | 1.86 | 2900 | 2880 | >34 | > 64 | > 100 |  |  |  |
| Cc1ccc(CCNC(=O)c2ncc([N+](=O)[O-])n2C)cc1 [Compound 8e, 1-methyl-N-(4-methylphenethyl)-5-nitro-1H-imidazole-2-carboxamide] | > 100 | > 64 |  | 8130 | 13 | 12.9 | > 20 | > 20 | 2800 to 3500 | 2820 | >36 | > 64 | > 100 | 2800 |  |  |
| Cn1c([N+](=O)[O-])cnc1C(=O)NCc1ccccn1 [Compound 8f, 1-methyl-5-nitro-N-(pyridin-2-ylmethyl)-1H-imidazole-2-carboxamide.xTFA] | > 100 | 64 | 1400 | 1450 | 14 | 14.1 | 4.1 | 4.07 | 1600 | 1580 | >63 | 64 | > 100 |  |  |  |
| Cn1c([N+](=O)[O-])cnc1C(=O)N1CCCC1 [Compound 8i, (1-methyl-5-nitro-1H-imidazol-2-yl)(pyrrolidin-1-yl)methanone] | > 100 | 64 (≈ 285 µM) | 1700 | 1740 | 22 | 21.9 | 4 | 3.98 | 2900 | 2880 | >34 | 64 (≈ 285 µM) | > 100 |  |  |  |
| Cn1c([N+](=O)[O-])cnc1C(=O)NC1CC1 [Compound 8j, N-cyclopropyl-1-methyl-5-nitro-1H-imidazole-2-carboxamide] | > 100 | > 64 | 1100 | 1100 | 12 | 12 | 8.6 | 8.71 | 3400 | 3390 | >29 | > 64 | > 100 |  |  |  |
| NC(=O)c1nc([N+](=O)[O-])cn1Cc1ccc(F)cc1 [Compound 13a, 1-(4-fluorobenzyl)-4-nitro-1H-imidazole-2-carboxamide] |  | > 64 |  |  | > 50 | > 50.1 |  |  | > 50000 | > 50100 |  |  |  |  | > 100 | > 100 |
| NC(=O)c1nc([N+](=O)[O-])cn1Cc1ccc(OC(F)(F)F)cc1 [Compound 13b, 4-nitro-1-(4-(trifluoromethoxy)benzyl)-1H-imidazole-2-carboxamide] |  | > 64 |  |  | > 25 | > 25.1 |  |  | 4100 | 4070 | >22 |  |  |  | > 100 | > 100 |
| NC(=O)c1nc([N+](=O)[O-])cn1Cc1cccc(OC(F)(F)F)c1 [Compound 13c, 4-nitro-1-(3-(trifluoromethoxy)benzyl)-1H-imidazole-2-carboxamide] |  | > 64 |  |  | > 50 | > 50.1 |  |  | 8400 | 8320 | >12 |  |  |  | > 100 | > 100 |
